Experimental data from US4684625A, “Method for enhancing the anti-infective activity of muramyldipeptide derivatives” (Syntex (U.S.A.) Inc., priority 1985, dated 1987).
Values joined by “and” are separate entries in the source; they are usually repeats but may differ in a detail not shown here. Equal entries are not always repeated.

Tests used:
[1] = test system: Candida albicans; test: Survival of mice treated with abu-MDP at 96 and 48 hr prior to challenge with Candida albicans (Example 1, Table I); assay type: in vivo; details: for Survival No. (%) / Survival Time: no MLV, days 4 and 2 before infection; for Survival No. (%): third set of rows (saline control 0%); for Survival Time: third set of rows (saline control 3.6 days)
Protocol: Multilamellar vesicles (MLVs) were formed by drying down egg phosphatidylcholine and brain phosphatidylserine (7:3 molar ratio) on the inside of a flask. Phosphate-buffered saline lacking divalent cations (PBS) was added (1 ml per 20 micromoles phospholipid), and the flask shaken, either by hand or with a mechanical shaker, until the lipid film was dispersed. When N-acetylmuramyl-L-α-aminobutyryl-D-isoglutamine (abu-MDP) was to be encapsulated, it was included in the aqueous solution before addition to the lipid film. The vesicles formed as the result of shaking the aqueous solution which contained MDP derivative were washed to remove unencapsulated MDP derivative, pelleted by centrifugation at 30,000×g for 20-30 min, and then resuspended in PBS. MLV preparations made without MDP derivative were either pelleted and resuspended as described, or were used without further treatment.
(§1) Mice were injected intravenously with liposomes (4 micromoles phospholipid)and also with free abu-MDP (2-4 mg/kg). The abu-MDP was injected at the same time as the liposome injection. Injections were made at 96 and 48 hr prior to challenge with Candida albicans (5×10^6 cells injected intravenously). Control mice were treated with either liposomes only, or abu-MDP only (4 or 60 mg/kg), or abu-MDP (2-4 mg/kg) encapsulated in liposomes, and similarly challenged with Candida albicans. Each treatment group contained 20 mice. All mice were monitored daily for number of survivors. Statistical analysis of survival time was computed using Mann Whitney U probability analysis, and the numbers of survivors were statistically compared using Fisher Exact probability analysis.
P values, calculated for survival time and number of survivors at the time when controls (treated only with MLV or with saline) first reached 100% dead, were all less than 0.03. By comparison, the treatments with the same concentration of abu-MDP alone were ineffective (P≥0.05).

[2] = test system: Candida albicans; test: Survival of mice given a single abu-MDP treatment 72 hr prior to challenge with Candida albicans (Example 2, Table II); assay type: in vivo; details: one treatment at day 3 before infection
Protocol: as §1
A second experiment was performed by the method described in Example 1, except that the mice were given a single pre-infection treatment at 72 hr prior to challenge, instead of treatments at 96 and 48 hr prior to challenge as in Example 1.

[3] = Radioactivity of 3H-desMDP in liposome fraction and aqueous supernatant after mixing with pre-formed MLVs (Example 3, Table III); assay type: physicochemical
Protocol: MLVs were prepared as described above, hydrating the dried lipid film with PBS. These pre-formed liposomes were then mixed with unencapsulated MDP compound spiked with tritiated N-acetyldesmethylmuramyl-L-alanyl-D-isoglutamine (^3 H-desMDP). The liposome/MDP derivative mixture was washed and pelleted, and the final liposome pellet resuspended in PBS. The radioactivity in the liposome fraction was determined, as well as the radioactivity in the aqueous supernatant from the washing and pelleting steps. […] Thus, MDP compounds are not incorporated into or attached to liposomes in the practice of the invention.

| Substance | protective activity against Candida albicans ([1]; abu-MDP alone at the same concentration as used with MLV (P≥0.05)) | Survival No. (%) ([1]; free abu-MDP 4 mg/kg) | Survival Time ([1]; free abu-MDP 4 mg/kg) | Survival No. (%) ([1]; free abu-MDP 60 mg/kg) | Survival Time ([1]; free abu-MDP 60 mg/kg) | protective activity against Candida albicans ([1]; free abu-MDP alone raised to 60 mg/kg) | Survival No. (%) ([2]; abu-MDP 4 mg/kg) | Survival Time ([2]; abu-MDP 4 mg/kg) | Survival No. (%) ([2]; free abu-MDP 60 mg/kg) | Survival Time ([2]; free abu-MDP 60 mg/kg) | cpm/0.1 ml ([3]; aqueous fraction (supernatant from washing and pelleting)) | % of Total ([3]; aqueous fraction (supernatant)) | % of Total ([3]; liposome fraction) | cpm/0.1 ml ([3]; liposome fraction (final pellet resuspended in PBS)) |
| --- | --- | --- | --- | --- | --- | --- | --- | --- | --- | --- | --- | --- | --- | --- |
| N-acetylmuramyl-L-α-aminobutyryl-D-isoglutamine [abu-MDP] | ineffective | 0% | 4.4 days | 45% | 6.9 days | protective activity obtained equivalent to that seen using the lower dose of abu-MDP (2-4 mg/kg) plus MLV | 0% | 5.2 days | 32% | 6.4 days | – | – | – | – |
| tritiated N-acetyldesmethylmuramyl-L-alanyl-D-isoglutamine [^3 H-desMDP] | – | – | – | – | – | – | – | – | – | – | 557,610 cpm/0.1 ml and 562,800 cpm/0.1 ml | ~100% | 0.2% | 1,462 cpm/0.1 ml and 1,304 cpm/0.1 ml |
